Assay results taken from the supplement of paper PMC10307832.

Assays:
Assay in all cases: relative viability (nuclei count vs DMSO), 5 days (fraction); higher = more cells survive
[1] = compound: CCN(CCO)CCCC(C)Nc1ccnc2cc(Cl)ccc12 [Hydroxychloroquine] + COc1cccc2cc(-c3nc([C@H]4CC[C@H](C(=O)O)CC4)n4ncnc(N)c34)[nH]c12 [OSI-027] (partner 0.5 µM)
How it was run: (§1)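 Lung cancer cell lines in 1536-well plates were dosed by pin tool the day after seeding, either with one drug alone or with a fixed anchor-drug dose plus five library-drug doses (not always all listed) in √10 steps. After 5 days, cells were fixed and their nuclei stained in one step (final 0.05% Triton X-100, 1% formaldehyde, 1 ug/ml Hoechst), then counted on 4× images. Relative viability is the nuclei count in treated wells divided by that in vehicle wells. Values are medians of duplicate plates.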

[2] = compound: CCN(CCO)CCCC(C)Nc1ccnc2cc(Cl)ccc12 [Hydroxychloroquine] + CS(=O)(=O)CCNCc1ccc(-c2ccc3ncnc(Nc4ccc(OCc5cccc(F)c5)c(Cl)c4)c3c2)o1 [Lapatinib] (partner 2 µM)
How it was run: as §1

[3] = compound: CCN(CCO)CCCC(C)Nc1ccnc2cc(Cl)ccc12 [Hydroxychloroquine] + C[C@]1(O)C[C@@H](c2nc(-c3ccc4ccc(-c5ccccc5)nc4c3)c3c(N)nccn32)C1 [Linsitinib] (partner 1 µM)
How it was run: as §1

[4] = compound: CCN(CCO)CCCC(C)Nc1ccnc2cc(Cl)ccc12 [Hydroxychloroquine] + Cc1nc(NC(=O)N2CCC[C@H]2C(N)=O)sc1-c1ccnc(C(C)(C)C(F)(F)F)c1 [Alpelisib] (partner 2 µM)
How it was run: as §1

Cell Line	relative viability ([1]; first compound 0.5 µM)	relative viability ([1]; first compound 1.581 µM)	relative viability ([1]; first compound 5 µM)	relative viability ([1]; first compound 15.81 µM)	relative viability ([1]; first compound 50 µM)	relative viability ([2]; first compound 0.5 µM)	relative viability ([2]; first compound 1.581 µM)	relative viability ([2]; first compound 5 µM)	relative viability ([2]; first compound 15.81 µM)	relative viability ([2]; first compound 50 µM)	relative viability ([3]; first compound 0.5 µM)	relative viability ([3]; first compound 1.581 µM)	relative viability ([3]; first compound 5 µM)	relative viability ([3]; first compound 15.81 µM)	relative viability ([3]; first compound 50 µM)	relative viability ([4]; first compound 0.5 µM)	relative viability ([4]; first compound 1.581 µM)	relative viability ([4]; first compound 5 µM)	relative viability ([4]; first compound 15.81 µM)	relative viability ([4]; first compound 50 µM)
NCI-H2405	0.626	0.55	0.652	0.627	0.658	1.09	0.998	1.1	1.04	1.15	0.923	0.806	0.92	0.98	0.968	0.961	0.592	0.879	0.856	0.845
NCI-H3122	1.05	0.962	1.12	1.2	1.18	1.02	1.01	1.05	1	1.07	1.05	1	0.953	1.05	1.07	0.798	0.736	0.822	0.779	0.8
PC-3 [JPC-3]	0.743	0.642	0.82	0.745	0.924	0.485	0.423	0.421	0.46	0.501	0.983	0.948	0.923	1.01	0.979	1.01	1.04	1.06	1	1.02
PC-14	0.958	0.586	0.872	0.861	0.927	0.348	0.354	0.291	0.306	0.292	0.889	1.07	0.995	1.03	0.97	0.782	0.858	0.951	0.892	1.01
RERF-LC-KJ	0.587	0.5	0.537	0.631	0.609	0.847	0.805	0.942	0.779	0.94	0.896	0.885	0.911	0.854	0.822	0.778	0.697	0.732	0.879	0.852
SK-LU-1	0.394	0.348	0.337	0.334	0.34	0.932	0.845	0.896	0.871	0.909	1.11	1.09	1.04	1.19	0.982	0.964	0.852	1.05	1.06	1.03
SK-MES-1	0.623	0.381	0.712	0.67	0.589	0.515	0.418	0.487	0.472	0.449	1.1	1.09	1.12	1.16	1.03	0.697	0.765	1.01	0.952	0.929
SW 1573	0.591	0.524	0.674	0.649	0.826	0.98	1.01	1.15	1.07	0.997	0.698	0.625	0.67	0.74	0.674	0.703	0.767	0.893	0.796	0.826
UMC-11	–	0.402	0.486	0.403	0.538	0.829	0.735	0.982	1.1	1.13	0.928	1.02	0.986	1.1	1.22	0.841	0.956	0.962	1.06	1.2
